Reference: patent US20190083420A1, “METHODS OF USING (2R, 6R)-HYDROXYN[…] (2S, 6S)-HYDROXYN[…] THE TREATMENT OF DEPRESSION, ANXIETY, ANHEDONIA, FATIGUE, SUICIDAL IDEATION, AND POST TRAUMATIC STRESS DISORDERS” (The Uinited States of America, as represented by the …, priority 2016, published 2019)
Entries after “also recorded” stand apart in the source; their conditions may differ.

Columns and labels:
Type in all cases: in vivo
[1] = test system: mice; assay: Chronic corticosterone-induced anhedonia, female urine sniffing test; conditions: single administration, mice with anhedonic phenotype, re-test 24 hours later
Description: A separate cohort of mice were treated with the same chronic corticosterone administration paradigm as described above, and 24 hours later assessed for female urine sniffing preference as a measure of hedonic behavior. Mice were singly-housed in freshly-made home cages for a habituation period of 10 min. Subsequently, one plain cotton tip was secured on the center of the cage wall and mice were allowed to sniff and habituate to the tip for a period of 30 min. Then, the plain cotton tip was removed and replaced by two cotton tip applicators one infused with fresh female mouse estrus urine and the other with fresh male mouse urine. These applicators were presented at the same time and secured at the two corners of the cage wall. Sniffing time for both the female and male urine was scored by a trained observer for a period of three minutes.

[2] = test system: mice; assay: Chronic corticosterone-induced anhedonia, sucrose preference test; conditions: single administration, measured after 24 hours
Description: For assessing the baseline sucrose preference, mice were singly housed for 24 hours and presented with two identical bottles containing either tap water or 1% sucrose solution. Following baseline sucrose measurement, mice were re-grouped housed (5 mice per cage) and treated for 4 weeks with corticosterone (25 μg/ml equivalent) given in water bottles. Prior to initiation of any behavioral measurements, animals were weaned off corticosterone treatment; 3 days corticosterone 12.5 μg/ml and 3 days corticosterone 6.25 μg/ml, followed by 1 week of complete withdrawal from the drug. Mice were subsequently singly-housed in freshly-made home cages and provided with two bottles containing either tap water or 1% sucrose solution. Twenty-four hours later, mice that developed anhedonia phenotype (<55% sucrose preference) were treated with saline or (2R,6R)-HNK (10 mg/kg) and sucrose preference measured after an additional 24 hours.

[3] = test system: male CD-1 mice; assay: Novelty-suppressed feeding (NSF); conditions: i.p.
Excerpt: Male CD-1 mice (8-10 weeks old, Charles River Laboratories, Mass., USA) were housed in groups of four-five per cage with a constant 12-hour light/dark cycle (lights on/off at 07:00/19:00). Food and water were available ad libitum. Mice acclimatized to the new environment for seven days prior to the start of the experiments. For the whole-cell NMDA current electrophysiological recordings, male Sprague-Dawley rats (housed three per cage; Charles River, Wilmington, Mass.) were used. EPSC recording were done from rats at postnatal day 24-25. All experimental procedures were approved by the University of Maryland, Baltimore Animal Care and Use Committee and were conducted in full accordance with the National Institutes of Health Guide for the Care and Use of Laboratory Animals.
Mice were singly housed and food-deprived for twenty-four hours in freshly-made home-cages. Two normal chow diet pellets were placed on a square food platform (10×10 cm) in the center of an open-field arena (40×40 cm). […] The time needed for the mice to take a bite of food was recorded over a 10 min period by a trained observer blind to the treatment groups. After the test, the mice were returned to their home cage containing pre-weighed food pellets, and latency to bite the food as well as consumption was recorded for a period of 10 min.

N[C@@]1(c2ccccc2Cl)CCC[C@@H](O)C1=O [(2R,6R)-HNK, (2R,6R)-2-amino-2-(2-chlorophenyl)-6-hydroxycyclohexanone]
reversal of chronic corticosterone-induced decrease in female urine sniffing preference [1]: reversed chronic corticosterone-induced decrease in female urine sniffing preference; also recorded: reversed chronic corticosterone-induced anhedonia | reversal of chronic corticosterone-induced decrease in sucrose preference [2]: reversed chronic corticosterone-induced decreases in sucrose preference; also recorded: reversed chronic corticosterone-induced anhedonia | antidepressant-like effect in novelty-suppressed feeding (latency to feed) [3]: dose-dependent antidepressant-like effects; also recorded: dose-dependent antidepressant action
